Assay results published in patent US20130202530A1, “NOVEL RADIOTRACER” (IMPERIAL COLLEGE, priority 2010, published 2013).

Assays:
[1] = target: T1, choline oxidase (Arthrobacter globiformis, UniProt Q7X2H8); assay: Enzymatic oxidation study using choline oxidase; conditions: 60 minute time point, room temperature
T1 sequence (Q7X2H8 1-546): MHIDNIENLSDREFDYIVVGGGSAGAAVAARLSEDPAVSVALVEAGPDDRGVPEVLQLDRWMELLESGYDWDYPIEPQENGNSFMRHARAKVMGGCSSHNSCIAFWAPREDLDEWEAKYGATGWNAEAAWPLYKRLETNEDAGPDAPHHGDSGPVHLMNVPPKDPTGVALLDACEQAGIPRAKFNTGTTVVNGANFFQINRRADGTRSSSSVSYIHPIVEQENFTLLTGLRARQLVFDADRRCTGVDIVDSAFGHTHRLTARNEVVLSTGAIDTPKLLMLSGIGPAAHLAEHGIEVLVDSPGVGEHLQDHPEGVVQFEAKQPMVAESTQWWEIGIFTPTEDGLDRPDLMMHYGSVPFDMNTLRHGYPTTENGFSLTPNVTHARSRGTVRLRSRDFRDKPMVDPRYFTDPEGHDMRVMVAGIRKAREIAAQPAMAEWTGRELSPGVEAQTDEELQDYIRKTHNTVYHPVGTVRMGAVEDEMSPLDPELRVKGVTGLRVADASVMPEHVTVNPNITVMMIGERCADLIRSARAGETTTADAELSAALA
Protocol: [^18F]fluoromethylcholine and [^18F]fluoromethyl-[1,2-^2H4]choline were evaluated in a choline oxidase model (Roivainen, A., et al., European Journal of Nuclear Medicine 2000; 27:25-32).
An aliquot of either [^18F]Fluoromethylcholine or [^18F]fluoromethyl-[1,2-^2H4]choline [^18F](100 μL, ˜3.7 MBq) was added to a vial containing water (1.9 mL) to give a stock solution. Sodium phosphate buffer (0.1 M, pH 7) (10 uL) containing choline oxidase (0.05 units/uL) was added to an aliquot of stock solution (190 uL) and the vial was then left to stand at room temperature, with occasional agitation. At selected time-points (5, 20, 40 and 60 minutes) the sample was diluted with HPLC mobile phase (buffer A, 1.1 mL), filtered (0.22 μm filter) and then ˜1 mL injected via a 1 mL sample loop onto the HPLC for analysis. Chromatographic separation was performed on a Waters C18 Bondapak (7.8×300 mm) column (Waters, Milford, Mass., USA) at 3 mL/min with a mobile phase of buffer A, which contained acetonitrile, ethanol, acetic acid, 1.0 mol/L ammonium acetate, water, and 0.1 mol/L sodium phosphate (800:68:2:3:127:10 [v/v]) and buffer B, which contained the same constituents but in different proportions (400:68:44:88:400:10 [v/v]). The gradient program comprised 100% buffer A for 6 minutes, 0-100% buffer B for 10 minutes, 100-0% B in 2 minutes then 0% B for 2 minutes.

[2] = test system: HCT116 human colon xenografts; conditions: mouse, in vivo
Protocol: Time course biodistribution was carried out for [^18F]fluoromethylcholine, [^18F]fluoromethyl-[1-^2H2]choline and [^18F]fluoromethyl-[1,2-^2H4]choline in nude mice bearing HCT116 human colon xenografts.
Human colon (HCT116) tumors were grown in male C3H-Hej mice (Harlan, Bicester, United Kingdom) as previously reported (Leyton, J., et al., Cancer Research 2005; 65(10):4202-10). Tumor dimensions were measured continuously using a caliper and tumor volumes were calculated by the equation: volume=(π/6)×a×b×c, where a, b, and c represent three orthogonal axes of the tumor. Mice were used when their tumors reached approximately 100 mm^3. […] The mice were sacrificed at pre-determined time points (2, 30 and 60 min) after radiotracer injection under terminal anesthesia to obtain blood, plasma, tumor, heart, lung, liver, kidney and muscle. Tissue radioactivity was determined on a gamma counter (Cobra II Auto-Gamma counter, Packard Biosciences Co, Pangbourne, UK) and decay corrected. Data were expressed as percent injected dose per gram of tissue.

[3] = test system: human melanoma SKMEL-28 xenografts; conditions: mouse, in vivo
Protocol: Dynamic [^18F]FCH and [^18F]D4-FCH imaging scans were carried out on a dedicated small animal PET scanner, quad-HIDAC (Oxford Positron Systems). The features of this instrument have been described previously (Barthel, H., et al., Cancer Res 2003; 63(13):3791-8). For scanning the tail veins, vehicle- or drug-treated mice were cannulated after induction of anesthesia (isofluorane/O2/N2O). The animals were placed within a thermostatically controlled jig (calibrated to provide a rectal temperature of ˜37° C.) and positioned prone in the scanner. [^18F]FCH or [^18F]D4-FCH (2.96-3.7 MBq) was injected via the tail vein cannula and scanning commenced. Dynamic scans were acquired in list mode format over a 60 min period as reported previously (Leyton, J., et al., Cancer Research 2006; 66(15):7621-9). […] Dynamic data from these slices were averaged for each tissue (liver, kidney, muscle, urine, and tumor) and at each of the 19 time points to obtain time versus radioactivity curves. Corresponding whole body time versus radioactivity curves representing injected radioactivity were obtained by adding together radioactivity in all 200×160×160 reconstructed voxels. Tumor radioactivity was normalized to whole-body radioactivity and expressed as percent injected dose per voxel (% ID/vox). […] The area under the curve was calculated as the integral of % ID/vox from 0 to 60 min.

[4] = 20 min
Text: The effect of deuterium substitution on bond strength was initially tested by evaluation of the chemical oxidation pattern of [^18F]fluoromethylcholine and [^18F]Fluoromethyl-[1,2-^2H4]choline using potassium permanganate.

[5] = mouse, in vivo
Protocol: [^18F]FCH or [^18F](D4-FCH) (80-100 μCi) was injected via the tail vein into anesthetized non-tumor bearing C3H-Hej mice; isofluorane/O2/N2O anesthesia was used. Plasma samples obtained at 2, 15, 30 and 60 minutes after injection were snap frozen in liquid nitrogen and stored at −80° C. For analysis, samples were thawed and kept at 4° C. To approximately 0.2 mL of plasma was added ice-cold acetonitrile (1.5 mL). The mixture was then centrifuged (3 minutes, 15,493×g; 4° C.). The supernatant was evaporated to dryness using a rotary evaporator (Heidoloph Instruments GMBH & C0, Schwabach, Germany) at a bath temperature of 45° C. The residue was suspended in mobile phase (1.1 mL), clarified (0.2 μm filter) and analyzed by HPLC. […] All samples were analyzed on an Agilent 1100 series HPLC system equipped with a γ-RAM Model 3 radio-detector (IN/US Systems inc., FL, USA). The analysis was based on the method of Roivannen (Roivainen, A., et al., European Journal of Nuclear Medicine 2000; 27:25-32) using a Phenomenex Luna SCX column (10μ, 250×4.6 mm) and a mobile phase comprising of 0.25 M sodium dihydrogen phosphate (pH 4.8) and acetonitrile (90:10 v/v) delivered at a flow rate of 2 ml/min.

[6] = test system: human colon carcinoma xenograft HCT116; assay: Imaging response to PD0325901 treatment by [18F]D4-FCH-PET; assay type: in vivo, mice
Protocol: Size-matched HCT116 tumor bearing mice were randomized to receive daily treatment by oral gavage of vehicle (0.5% hydroxypropyl methylcellulose+0.2% Tween 80) or 25 mg/kg (0.005 mL/g mouse) of the mitogenic extracellular kinase inhibitor, PD0325901, prepared in vehicle. [^18F]D4-FCH-PET scanning was done after 10 daily treatments with the last dose administered 1 h before scanning. […] The results are illustrated in FIGS. 18 and 19.
These studies were performed in a reproducible tumor model system in which treatment outcomes had been previously characterized, i.e., the human colon carcinoma xenograft HCT116 treated with PD0325901 daily for 10 days (Leyton, J., et al., “Noninvasive imaging of cell proliferation following mitogenic extracellular kinase inhibition by PD0325901”, Mol Cancer Ther 2008; 7(9):3112-21). […] All imaging variables decreased after 10 days of drug treatment (P=0.05, FIG. 18). […] To understand the biomarker changes, the intrinsic cellular effect of PD0325901 on D4-FCH-phosphocholine formation was examined by treating exponentially growing HCT116 cells in culture with PD0325901 for 24 h and measuring the 60-min uptake of [^18F]D4-FCH in vitro.

[7] = test system: CHKA; assay: CHKA expression in exponentially growing cells treated with PD0325901; assay type: cell-based

SMILES | parent radiotracer present (radio-HPLC distribution of choline species) [1] | tumor uptake (localization of radiotracer) [2] | % IDvox60max (average of the maximum pixel % ID/vox60 across 5 slices) [3] | proportion of the parent compound remaining [4] | percentage of parent compound in plasma [5] | [18F]D4-FCH radiotracer retention in treated tumors ([6]; 25 mg/kg daily for 10 days, versus vehicle) | imaging variables (% ID/vox60, % ID/vox60max, AUC) ([6]; after 10 days of drug treatment, [18F]D4-FCH-PET) | CHKA expression in vitro [7]
C[N+](C)(C[18F])CCO [[^18F]FCH, [^18F]Fluoromethylcholine, reference compound] | 11±8% | – | – | – | – | – | – | –
[2H]C([2H])(O)C([2H])([2H])[N+](C)(C)C[18F] [[^18F]D4-FCH, [^18F]fluoromethyl-[1,2-^2H4]-choline] | 29±4% | pronounced increase in tumor uptake | significantly higher | greater proportion of the parent compound remaining | consistently higher | – | – | –
O=C(NOC[C@H](O)CO)c1ccc(F)c(F)c1Nc1ccc(I)cc1F [PD0325901] | – | – | – | – | – | marked reduction in radiotracer retention | decreased | reduction
